# Measured values published in patent publication US6359168B1, “Compounds derived from menthol and use as refreshing agent” (Firmenich SA, priority 1998, dated 2002).
# Key:
# Type in all cases: in vivo, human
# buccal mucosae = assay: Taste and cooling effect of the compound when tasted
# expert flavourists [1] = assay: Grapefruit-flavoured sweets compared by expert flavourists under blind conditions; conditions: 0.05% in grapefruit-flavoured sweets
# Method: Grapefruit-flavoured sweets were prepared from boiled sugar, 1% citric acid, and 0.05% of a grapefruit flavouring of the following formula: Under blind conditions, expert flavourists then compared these sweets, without any additives, with sweets of the same composition to which certain compounds according to the invention had been added.
# expert tasters [2] = assay: Chewing gum compared by expert tasters under blind conditions; conditions: 0.4 parts by weight in chewing gum
# Method: Chewing gum was prepared from a Cafosa Navada Plus T 413-01chewing-gum base (18 parts by weight) (source: Cafosa Gum Products Technology, Barcelona, Spain), sugar (60 parts by weight, glucose (20 parts by weight) and glycerol (0.5 parts by weight). 0.8 parts by weight of citric acid and 1 part by weight of lemon flavouring according to the formula given in Example 8 were then added to this mixture. Under blind conditions, expert tasters then compared this chewing-gum base, without any additives, with chewing gums of the same composition to which certain compounds according to the invention had been added.
# expert tasters [3] = assay: Orange drink compared by expert tasters under blind conditions; conditions: 0.003% in orange drink
# Method: An orange-flavoured drink was prepared from a 65° Brix syrup which had been diluted to 10%, acidified with 1.5% citric acid and then flavoured with 0.01% of an orange flavouring of the following formula: Under blind conditions, expert tasters then compared this base drink, without any additives, with drinks of the same composition to which certain compounds according to the invention had been added.
# expert flavourists [4] = assay: Lemon sorbets compared by expert flavourists under blind conditions; conditions: 0.05% by weight in lemon sorbet
# Method: Lemon sorbets were prepared from the following ingredients using conventional techniques: 0.5% citric acid and 0.01% of lemon flavouring of the following formula were then added: Under blind conditions, expert flavourists then compared this lemon sorbet, without any additives, with sorbets of the same composition to which certain compounds according to the invention had been added.
# expert flavourists [5] = assay: Gelatin-based grapefruit confectioneries compared by expert flavourists under blind conditions; conditions: 0.05% by weight in gelatin-based grapefruit confectionery
# Method: By a method which is known per se, grapefruit-flavoured confectioneries were prepared from 30 g gelatin, 175 g water, 150 g sugar and 200 g glucose. We then added 0.8% citric acid and 0.08% of a grapefruit flavouring of the formula given in Example 6. Under blind conditions, expert flavourists then compared this base preserve, without any additives, with preserve of the same composition to which certain compounds according to the invention had been added.
SMILES,cooling effect (buccal mucosae),freshness (expert flavourists [1]),freshness (expert tasters [2]),freshness (expert tasters [3]),freshness (expert flavourists [4]),freshness (expert flavourists [5])
"CC(C)[C@@H]1CC[C@@H](C)C[C@H]1OC(=O)COCCO [(1R,2S,5R)-3-menthyl (2-hydroxyethoxy)acetate]",immediately and intensely cooling,,,,,
"CC(C)[C@@H]1CC[C@@H](C)C[C@H]1OC(=O)COCCOCCOCCO [(1R,2S,5R)-menthyl 11-hydroxy-3,6,9-trioxaundecanoate]",develops more particularly on the tongue and in the throat,,,,,
"COCC(=O)O[C@@H]1C[C@H](C)CC[C@H]1C(C)C [(1R,2S,5R)-3-menthyl methoxyacetate, (1R,2S,5R)-3-methyl methoxyacetate]",,yielded a freshness,prolonged freshness,sensation of freshness which develops as an after-taste,pleasant freshness in the mouth,leaves a freshness in the mouth
"COCCOCC(=O)O[C@@H]1C[C@H](C)CC[C@H]1C(C)C [(1R,2S,5R)-3-menthyl 3,6-dioxaheptanoate]",,,prolonged freshness,,,the same freshness effect
